Laboratory results: patent EP4745137A1 (Gluetacs Therapeutics (Shanghai) Co., Ltd., priority 2023, dated 2025)

Tests used:
[1] = target: T1, CK1α (Homo sapiens, UniProt P48729+Q96SW2); test: Western-blot assay of substrate protein degradation in hPBMCs, CK1α; type: cell-based; conditions: 24 hours of compound treatment, compounds tested at 50 nM and 500 nM (concentration of the table not stated)
T1 construct: endogenous in cells; host or cells: hPBMCs (Milecell Biotechnologies)

[2] = system: Human acute T lymphocytic leukemia cells (Molt-4); test: Tumor cell proliferation inhibition (CellTiter-Meiluncell Luminescent Cell Viability Assay), Molt-4; conditions: MOLT-4, 96 h, read-out: inhibitory activity (IC50, nM) against tumor cells proliferation, Molt 4
Description: The tumor cells used herein were cultured in a cell culture medium listed in table 2 at 37°C in an incubator with 5% CO2. Prior to experimentation, all cell lines used were correctly identified by STR profiling, and tested negative for mycoplasma contamination using a mycoplasma detection kit through routine screenings.
On the following day, the test compounds of the present disclosure were subjected to serial dilution. […] Subsequently, 0.5 µL of the test compound dilution was transferred into the 96-well plate containing the cells, with each well containing 100 µL of cell culture medium. […] Into the 96-well plate, the diluted test compounds and corresponding detection reagents were added, resulting in final test compound concentrations of 500 nM and 10 nM, respectively. The experimental procedure is described below using the diluted 2 µM test compound as an example.
After the cells were treated with the compounds of the present disclosure for a specified period (the treatment durations were shown in Table 3), the cell viability assay reagent was added to the culture medium according to the kit's instructions to determine cell viability. […] All controls were treated using the same procedure as the compounds of the present disclosure. The growth inhibition curves for the compounds of the present disclosure were plotted using Prism GraphPad software, and the IC50 values were calculated therefrom.

[3] = target: T2, IKZF1 (Homo sapiens, UniProt Q13422+Q96SW2); test: Western-blot assay of substrate protein degradation in hPBMCs, IKZF1; type: cell-based; conditions: 24 hours of compound treatment, compounds tested at 50 nM and 500 nM (concentration of the table not stated)
T2 construct: endogenous in cells; host or cells: hPBMCs (Milecell Biotechnologies)
T2 sequence (Q13422 whole entry): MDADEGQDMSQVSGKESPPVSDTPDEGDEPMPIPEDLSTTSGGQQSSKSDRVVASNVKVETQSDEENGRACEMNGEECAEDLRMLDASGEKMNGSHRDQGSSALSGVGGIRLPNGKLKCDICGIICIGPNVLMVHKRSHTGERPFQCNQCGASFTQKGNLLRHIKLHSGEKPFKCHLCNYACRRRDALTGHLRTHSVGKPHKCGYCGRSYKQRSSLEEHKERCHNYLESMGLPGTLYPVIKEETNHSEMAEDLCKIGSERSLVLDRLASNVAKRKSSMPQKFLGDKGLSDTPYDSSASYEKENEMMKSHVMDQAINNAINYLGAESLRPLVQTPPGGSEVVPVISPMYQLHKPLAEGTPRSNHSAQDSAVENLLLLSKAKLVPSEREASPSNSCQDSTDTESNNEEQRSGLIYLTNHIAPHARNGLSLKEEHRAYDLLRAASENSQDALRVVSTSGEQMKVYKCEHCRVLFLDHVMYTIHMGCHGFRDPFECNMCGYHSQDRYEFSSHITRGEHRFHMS
T2 sequence (Q96SW2 whole entry): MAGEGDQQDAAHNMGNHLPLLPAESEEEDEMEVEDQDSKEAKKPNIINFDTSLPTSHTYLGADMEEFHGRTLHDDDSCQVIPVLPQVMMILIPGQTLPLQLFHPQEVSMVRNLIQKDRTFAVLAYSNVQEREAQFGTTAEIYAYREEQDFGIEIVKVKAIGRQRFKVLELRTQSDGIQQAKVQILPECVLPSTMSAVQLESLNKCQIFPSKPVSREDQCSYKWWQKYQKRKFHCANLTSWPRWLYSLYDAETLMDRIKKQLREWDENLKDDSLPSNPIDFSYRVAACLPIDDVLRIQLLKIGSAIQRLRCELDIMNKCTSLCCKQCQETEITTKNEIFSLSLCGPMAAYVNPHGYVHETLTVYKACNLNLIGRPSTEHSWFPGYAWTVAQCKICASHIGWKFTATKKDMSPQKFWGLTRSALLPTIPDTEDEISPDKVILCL
T2 sequence (Q16531 whole entry partner): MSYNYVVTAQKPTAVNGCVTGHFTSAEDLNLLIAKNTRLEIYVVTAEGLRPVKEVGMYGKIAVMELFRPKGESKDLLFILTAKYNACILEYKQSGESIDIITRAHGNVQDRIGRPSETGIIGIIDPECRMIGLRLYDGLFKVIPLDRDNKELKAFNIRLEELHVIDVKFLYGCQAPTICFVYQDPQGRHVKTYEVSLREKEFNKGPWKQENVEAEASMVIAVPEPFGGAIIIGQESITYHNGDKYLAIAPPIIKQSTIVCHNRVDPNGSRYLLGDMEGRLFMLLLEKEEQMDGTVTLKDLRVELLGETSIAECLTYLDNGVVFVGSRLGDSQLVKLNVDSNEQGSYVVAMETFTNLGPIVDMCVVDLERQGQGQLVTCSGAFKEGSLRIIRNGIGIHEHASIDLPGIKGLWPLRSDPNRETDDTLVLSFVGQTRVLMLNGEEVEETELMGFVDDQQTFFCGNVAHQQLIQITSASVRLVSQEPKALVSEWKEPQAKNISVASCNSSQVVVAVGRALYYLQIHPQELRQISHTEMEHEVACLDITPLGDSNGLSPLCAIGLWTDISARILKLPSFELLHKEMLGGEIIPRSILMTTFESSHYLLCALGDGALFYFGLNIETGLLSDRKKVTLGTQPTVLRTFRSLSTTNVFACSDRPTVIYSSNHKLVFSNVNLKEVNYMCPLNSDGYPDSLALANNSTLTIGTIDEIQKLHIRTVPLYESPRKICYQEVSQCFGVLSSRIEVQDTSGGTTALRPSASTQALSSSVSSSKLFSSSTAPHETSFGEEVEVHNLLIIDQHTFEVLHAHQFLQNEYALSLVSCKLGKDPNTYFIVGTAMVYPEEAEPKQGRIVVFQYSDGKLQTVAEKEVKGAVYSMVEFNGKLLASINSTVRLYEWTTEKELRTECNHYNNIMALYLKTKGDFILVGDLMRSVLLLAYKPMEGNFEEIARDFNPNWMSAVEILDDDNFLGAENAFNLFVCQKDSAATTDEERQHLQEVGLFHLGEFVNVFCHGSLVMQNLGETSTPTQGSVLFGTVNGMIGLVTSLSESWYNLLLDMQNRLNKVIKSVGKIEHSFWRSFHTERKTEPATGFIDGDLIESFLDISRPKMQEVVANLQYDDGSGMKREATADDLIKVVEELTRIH

[4] = system: CCRF-CEM; test: Tumor cell proliferation inhibition (CellTiter-Meiluncell Luminescent Cell Viability Assay), CCRF-CEM; conditions: Homo sapiens, 96 h, read-out: inhibitory activity (IC50, nM) against tumor cells proliferation, CCRF-CEM
[5] = target: T3, IKZF2 (Homo sapiens, UniProt Q96SW2+Q9UKS7); test: Western-blot assay of substrate protein degradation in hPBMCs, IKZF2; type: cell-based; conditions: 24 hours of compound treatment, compounds tested at 50 nM and 500 nM (concentration of the table not stated)
T3 construct: endogenous in cells; host or cells: hPBMCs (Milecell Biotechnologies)
T3 sequence (Q9UKS7 whole entry): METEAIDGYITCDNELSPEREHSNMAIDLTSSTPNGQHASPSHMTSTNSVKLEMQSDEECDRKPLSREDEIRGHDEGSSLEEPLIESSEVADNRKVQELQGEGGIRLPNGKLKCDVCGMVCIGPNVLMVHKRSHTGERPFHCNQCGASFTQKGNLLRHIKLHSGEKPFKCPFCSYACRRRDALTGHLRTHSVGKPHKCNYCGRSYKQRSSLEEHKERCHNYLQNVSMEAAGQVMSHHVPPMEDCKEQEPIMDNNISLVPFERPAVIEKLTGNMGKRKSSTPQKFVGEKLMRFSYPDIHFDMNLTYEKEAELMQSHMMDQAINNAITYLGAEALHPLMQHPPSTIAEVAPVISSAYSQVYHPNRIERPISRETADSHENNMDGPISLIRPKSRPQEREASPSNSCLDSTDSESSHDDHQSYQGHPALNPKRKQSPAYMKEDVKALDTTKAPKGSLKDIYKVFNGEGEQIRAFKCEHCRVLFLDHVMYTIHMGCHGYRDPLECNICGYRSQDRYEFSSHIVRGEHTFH
T3 sequence (Q96SW2 whole entry): as the sequence (Q96SW2 whole entry) above
T3 sequence (Q16531 whole entry partner): as the sequence (Q16531 whole entry partner) above

[6] = target: T4, human Cereblon WT GST-tagged protein (Homo sapiens, UniProt Q96SW2); test: CRBN-binding affinity by HTRF (CEREBLON BINDING kit); conditions: HTRF inhibitory activity, CEREBLON BINDING kit; read-out: HTRF IC50
T4 construct: purchased CISBIO 64BDCRBNPEH
T4 sequence (Q96SW2 whole entry): as the sequence (Q96SW2 whole entry) above

[7] = target: T5, WEE1 (Homo sapiens, UniProt P30291+Q96SW2); test: Western-blot assay of substrate protein degradation in hPBMCs, WEE1; type: cell-based; conditions: 24 hours of compound treatment, compounds tested at 50 nM and 500 nM (concentration of the table not stated)
T5 construct: endogenous in cells; host or cells: hPBMCs (Milecell Biotechnologies)

[8] = target: T6, IKZF3 (Homo sapiens, UniProt Q96SW2+Q9UKT9); test: Western-blot assay of substrate protein degradation in hPBMCs, IKZF3; type: cell-based; conditions: 24 hours of compound treatment, compounds tested at 50 nM and 500 nM (concentration of the table not stated)
T6 construct: endogenous in cells; host or cells: hPBMCs (Milecell Biotechnologies)
T6 sequence (Q9UKT9 whole entry): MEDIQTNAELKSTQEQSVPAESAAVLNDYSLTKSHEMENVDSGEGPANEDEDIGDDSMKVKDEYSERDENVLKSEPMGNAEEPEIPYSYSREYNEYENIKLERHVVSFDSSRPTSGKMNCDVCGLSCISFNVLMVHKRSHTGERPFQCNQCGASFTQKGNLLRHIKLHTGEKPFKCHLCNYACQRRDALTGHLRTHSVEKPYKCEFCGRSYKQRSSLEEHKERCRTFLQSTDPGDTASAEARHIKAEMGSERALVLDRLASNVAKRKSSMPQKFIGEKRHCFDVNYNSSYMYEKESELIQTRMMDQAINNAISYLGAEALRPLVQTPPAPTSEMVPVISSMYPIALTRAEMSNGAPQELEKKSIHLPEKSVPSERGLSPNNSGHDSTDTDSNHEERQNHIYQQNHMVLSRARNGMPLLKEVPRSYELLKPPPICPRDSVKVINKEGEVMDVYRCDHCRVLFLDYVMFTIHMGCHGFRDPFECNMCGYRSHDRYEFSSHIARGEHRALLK
T6 sequence (Q96SW2 whole entry): as the sequence (Q96SW2 whole entry) above
T6 sequence (Q16531 whole entry partner): as the sequence (Q16531 whole entry partner) above

[9] = system: Jurkat; test: Tumor cell proliferation inhibition (CellTiter-Meiluncell Luminescent Cell Viability Assay), Jurkat; conditions: Homo sapiens, 96 h, read-out: inhibitory activity (IC50, nM) against tumor cells proliferation, Jurkat
[10] = target: T7, GSPT1 (Homo sapiens, UniProt P15170+Q96SW2); test: Western-blot assay of substrate protein degradation in hPBMCs, GSPT1; type: cell-based; conditions: 24 hours of compound treatment, compounds tested at 50 nM and 500 nM (concentration of the table not stated)
T7 construct: endogenous in cells; host or cells: hPBMCs (Milecell Biotechnologies)
T7 sequence (P15170 whole entry): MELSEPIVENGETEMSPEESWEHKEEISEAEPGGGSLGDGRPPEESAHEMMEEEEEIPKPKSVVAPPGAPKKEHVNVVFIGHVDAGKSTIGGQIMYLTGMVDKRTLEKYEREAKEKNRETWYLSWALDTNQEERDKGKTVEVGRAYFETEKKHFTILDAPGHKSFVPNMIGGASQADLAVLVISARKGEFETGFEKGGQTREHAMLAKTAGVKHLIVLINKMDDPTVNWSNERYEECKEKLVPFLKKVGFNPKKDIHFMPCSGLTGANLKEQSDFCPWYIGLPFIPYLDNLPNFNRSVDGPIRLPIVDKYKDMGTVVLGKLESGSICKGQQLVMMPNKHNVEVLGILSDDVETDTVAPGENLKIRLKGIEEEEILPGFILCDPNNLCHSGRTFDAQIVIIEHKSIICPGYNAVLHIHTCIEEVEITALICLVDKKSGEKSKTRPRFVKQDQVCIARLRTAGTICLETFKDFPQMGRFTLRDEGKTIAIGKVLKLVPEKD
T7 sequence (Q96SW2 whole entry): as the sequence (Q96SW2 whole entry) above
T7 sequence (Q16531 whole entry partner): as the sequence (Q16531 whole entry partner) above

[11] = system: CAL-62; test: Tumor cell proliferation inhibition (CellTiter-Meiluncell Luminescent Cell Viability Assay), CAL-62; conditions: Homo sapiens, CAL-62, 96 h, read-out: inhibitory activity (IC50, nM) against tumor cells proliferation, CAL-62
[12] = system: MM.1R; test: Tumor cell proliferation inhibition (CellTiter-Meiluncell Luminescent Cell Viability Assay), MM.1R; conditions: Homo sapiens, 96 h, read-out: inhibitory activity (IC50, nM) against tumor cells proliferation, MM.1R

T1 sequence (P48729 whole entry): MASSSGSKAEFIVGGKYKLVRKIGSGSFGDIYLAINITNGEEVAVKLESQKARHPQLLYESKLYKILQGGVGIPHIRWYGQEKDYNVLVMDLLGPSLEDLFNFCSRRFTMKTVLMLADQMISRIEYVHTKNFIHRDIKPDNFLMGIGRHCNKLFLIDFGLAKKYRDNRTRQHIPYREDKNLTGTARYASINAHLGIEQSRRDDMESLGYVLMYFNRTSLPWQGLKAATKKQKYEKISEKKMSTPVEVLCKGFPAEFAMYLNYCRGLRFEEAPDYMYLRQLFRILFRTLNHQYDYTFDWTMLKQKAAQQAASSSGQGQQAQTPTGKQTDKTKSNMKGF
T1 sequence (Q96SW2 whole entry): as the sequence (Q96SW2 whole entry) above
T1 sequence (Q16531 whole entry partner): as the sequence (Q16531 whole entry partner) above

| SMILES | CK1a substrate protein remaining % [1] | IC50 [2] | IKZF 1 substrate protein remaining % [3] | IC50 [4] | IKZF2 substrate protein remaining % [5] | IC50 [6] | Weel substrate protein remaining % [7] | IKZF3 substrate protein remaining % [8] | IC50 [9] | GSPT1 substrate protein remaining % [10] | IC50 [11] | IC50 [12] |
| --- | --- | --- | --- | --- | --- | --- | --- | --- | --- | --- | --- | --- |
| O=C1CCC(N2Cc3cc(CN4CCN(c5cccc(Cl)c5Cl)CC4)cc(F)c3C2=O)C(=O)N1 (stereo not drawn) [GT-04445, 3-(5-((4-(2,3-dichlorophenyl)piperazin-1-yl)methyl)-7-fluoro-1-oxoisoindolin-2-yl)piperidine-2,6-dione] | B (80%< substrate protein remaining %≤ 100%) | 100 to 500 nM | A (0% ≤ substrate protein remaining % ≤ 80%) | 100 to 500 nM | A (0% ≤ substrate protein remaining % ≤ 80%) | 500 to 1000 nM | B (80%< substrate protein remaining %≤ 100%) | A (0% ≤ substrate protein remaining % ≤ 80%) | 100 to 500 nM | A (0% ≤ substrate protein remaining % ≤ 80%) |  |  |
| O=C1CCC(N2Cc3cc(CN4CCN(c5cnnc(Cl)c5Cl)CC4)ccc3C2=O)C(=O)N1 (stereo not drawn) [GT-04544, 3-(5-((4-(5,6-dichloropyridazin-4-yl)piperazin-1-yl)methyl)-1-oxoisoindolin-2-yl)piperidine-2,6-dione] | A (0% ≤ substrate protein remaining % ≤ 80%) |  | A (0% ≤ substrate protein remaining % ≤ 80%) |  | A (0% ≤ substrate protein remaining % ≤ 80%) | 500 to 1000 nM | A (0% ≤ substrate protein remaining % ≤ 80%) | A (0% ≤ substrate protein remaining % ≤ 80%) |  | A (0% ≤ substrate protein remaining % ≤ 80%) | 50 to 100 nM |  |
| O=C1CCC(N2Cc3cc(CN4CCN(c5cccs5)CC4)ccc3C2=O)C(=O)N1 (stereo not drawn) [GT-04545, 3-(1-oxo-5-((4-(thiophen-2-yl)piperazin-1-yl)methyl)isoindolin-2-yl)piperidine-2,6-dione] | A (0% ≤ substrate protein remaining % ≤ 80%) |  | A (0% ≤ substrate protein remaining % ≤ 80%) |  | A (0% ≤ substrate protein remaining % ≤ 80%) | < 500 nM | A (0% ≤ substrate protein remaining % ≤ 80%) | A (0% ≤ substrate protein remaining % ≤ 80%) |  | A (0% ≤ substrate protein remaining % ≤ 80%) | 100 to 500 nM |  |
| O=C1CCC(N2Cc3cc(CN4CCN(c5ccsc5)CC4)ccc3C2=O)C(=O)N1 (stereo not drawn) [GT-04547, 3-(1-oxo-5-((4-(thiophen-3-yl)piperazin-1-yl)methyl)isoindolin-2-yl)piperidine-2,6-dione] | A (0% ≤ substrate protein remaining % ≤ 80%) | 100 to 500 nM | A (0% ≤ substrate protein remaining % ≤ 80%) |  | A (0% ≤ substrate protein remaining % ≤ 80%) | 500 to 1000 nM | A (0% ≤ substrate protein remaining % ≤ 80%) | A (0% ≤ substrate protein remaining % ≤ 80%) | 100 to 500 nM | A (0% ≤ substrate protein remaining % ≤ 80%) |  | 100 to 500 nM |
